Molecules are shown by their SMILES.

For data set [1] the following is noted: cited from earlier work.
The test system of data set [2] is obese Zucker rat. Conditions: treated rats; cited from earlier work.
Data set [3] concerns whole animal models. The settings on record: cited from earlier work.
The subject of data set [4] is obese Zucker rats. The data set can be described thus: Renal histology / kidney injury. Conditions: chronic administration, secondary benefit. The data set is classed as in vivo, rat. The procedure:
Forty-five male obese Zucker rats are obtained at 5 weeks of age (Charles is River) and randomized into three groups of 15 each. Namely, the forty-five male obese Zucker rats are randomized into Control Group A, Control Group B, and L-Carn Group, which each consists of 15 rats. Control Group A and Control Group B receive normal rat chow throughout the study. The 15 Zucker rats in L-Carn Group receive 100 mg/kg bodyweight (BWt) of levocarnitine, daily, in their drinking water or mixed with their food. At 6 weeks of age, all groups are placed in metabolic cages for 24-hours to determine baseline protein and creatinine excretion rates, whereby proteinuria can be determined. Systolic blood pressure measurements are obtained by tailcuff plethysmography and a sample of blood is obtained from the tail for determination of fasting plasma creatinine, insulin, blood glucose, triglycerides, and cholesterol. These measurements are subsequently repeated at 12, 18, and 24 weeks of age. […]
As one example, the PAS stained kidney sections are e.g. observed, examined, studied, and/or analyzed with light microscopy or other suitable means, while considering suitable observational criteria which includes, but is not limited to, a suitable glomerular sclerosis index, a suitable tubulointerstitial index, a suitable mesangial matrix index, and/or others. […]

Data set [5] deals with obese Zucker rats. Put plainly: Insulin sensitivity by euglycemic-hyperinsulinemic clamp technique. The class given is in vivo, rat. Conditions: chronic administration.
Description: Forty-five male obese Zucker rats are obtained at 5 weeks of age (Charles is River) and randomized into three groups of 15 each. Namely, the forty-five male obese Zucker rats are randomized into Control Group A, Control Group B, and L-Carn Group, which each consists of 15 rats. Control Group A and Control Group B receive normal rat chow throughout the study. The 15 Zucker rats in L-Carn Group receive 100 mg/kg bodyweight (BWt) of levocarnitine, daily, in their drinking water or mixed with their food. At 6 weeks of age, all groups are placed in metabolic cages for 24-hours to determine baseline protein and creatinine excretion rates, whereby proteinuria can be determined. […] At 6 weeks of age, the Zucker rats of Control Group A are anesthetized with sodium pentobarbital (50-60 mg/kg BWt intraperitoneally) and insulin sensitivity is determined using the euglycemic-hyperinsulinemic clamp technique, explained elsewhere herein. […] Blood glucose is determined every 15 minutes over a 120 minute baseline period. […] Blood glucose is analyzed every 5 minutes from a catheter in the femoral artery using a glucometer (Freestyle®, test volume required=0.3 μL) and the rate of D-glucose infused is adjusted to maintain plasma glucose at ˜5 mol/L. Whole body insulin sensitivity is calculated at the mean glucose infusion rate during the last 60 minutes of the euglycemic-hyperinsulinemic clamp study. […]
Data set [6] concerns obese Zucker rats. Put plainly: Intramyocellular lipid content (oil red O staining of adductor magnus muscle) after chronic levocarnitine. Conditions: obese Zucker rats with metabolic syndrome; chronic administration, 100 mg/kg bodyweight daily in drinking water or food. The class given is in vivo, rat.
Description: Forty-five male obese Zucker rats are obtained at 5 weeks of age (Charles is River) and randomized into three groups of 15 each. Namely, the forty-five male obese Zucker rats are randomized into Control Group A, Control Group B, and L-Carn Group, which each consists of 15 rats. Control Group A and Control Group B receive normal rat chow throughout the study. The 15 Zucker rats in L-Carn Group receive 100 mg/kg bodyweight (BWt) of levocarnitine, daily, in their drinking water or mixed with their food. […] After determining insulin sensitivity, the adductor magnus muscle of the left hind leg is isolated and the anterior and posterior ends tied with 3-O silk and cut outside the ties. The muscle is placed across a wooden stick, slightly wider than the muscle section is long, and tied in place to preserve its normal amount of stretch, then immediately immersed in isopentane cooled in liquid nitrogen. […] The lipid content of the sections is determined by using histochemical staining. One such suitable histochemical staining process includes using lipid-soluble dye to dye respective sections of tissue which are then observed and/or other wise analyzed. […] Ones of the three muscle fiber types are examined and lipid concentrations are determined respectively, pursuant to techniques and methods well known to those skilled in the art. […]
For data set [7], the system named is canine cardiac tissue. The settings on record: cited from earlier work.
The test system of data set [8] is Type II Diabetics. Conditions: acute administration; cited from earlier work.
For data set [9] the following is noted: carnitine treatment; cited from earlier work.

Consider `Cc1c(C)c2c(c(C)c1O)CCC(C)(COc1ccc(CC3SC(=O)NC3=O)cc1)O2` (centres unmarked) [troglitazone], for which the hepatotoxicity entry in [1] (removed from the market) was “excessive hepatotoxicity”.

With `CN(CCOc1ccc(CC2SC(=O)NC2=O)cc1)c1ccccn1` (centres unmarked) [roziglitazone], the side effects entry in [1] (in vivo) is recorded as “weight gain”. Besides, in [2], the “concentration of IMCL” value is given as “reduce the concentration of IMCL” and the insulin sensitivity entry was “marked improvement in insulin sensitivity”.

Take `CCOC(=O)[C@@]1(CCCCCCOc2ccc(Cl)cc2)CO1` [Etomoxir]: in data set [3], the intramyocellular lipid result is listed as “rise in intramyocellular lipid” and the “whole body insulin resistance” value is on record as “increasing degrees of whole body insulin resistance”.

`C[N+](C)(C)CC(O)CC(=O)[O-]` (centres unmarked) [levocarnitine, 3-hydroxy-4-N trimethylammonium butyrate]: in [4], the kidney injury entry is on record as “reduction of kidney injury”. The insulin sensitivity result in data set [5] (obese Zucker rats with metabolic syndrome, 100 mg/kg bodyweight daily) is “improves insulin sensitivity”. The systemic insulin concentrations entry in data set [5] (obese Zucker rats) is “lower systemic insulin concentrations”. Besides, the intramyocellular lipid concentration result in [6] is “decreases the intramyocellular lipid concentration”. Further, the “elution of long chain acyl CoA esters” value in data set [7] is listed as “ability of levocarnitine to elute long chain acyl CoA esters has been demonstrated”. Further, in data set [8], the “glucose storage and oxidation” value is “both glucose storage and oxidation”; the “whole body glucose uptake” value is on record as “significantly increased whole body glucose uptake”. Besides, the “urinary excretion of long chain carnitine esters” value in data set [9] is on record as “increased urinary excretion of long chain carnitine esters”.

The values above are taken from patent US20050232911A1, “Prevention and treatment of metabolic abnormalities associated with excess intramyocellular lipid” (priority 2004, published 2005).
